In one experiment the test system is BALB/c mice. Briefly: In vivo delivery of lipid nanoparticle encapsulating luciferase mRNA (Fluc mRNA), IVIS imaging. The conditions noted are these: Fluc mRNA-LNP (amino lipid:DSPC:CHO-HP:PEG2000-DMG 48:10:40.5:1.5), 75 μL tail vein IV, female BALB/c mice, IVIS 6 hours after injection, whole body. On the procedure: The amino lipid compound of the present disclosure, a helper lipid, a structural lipid, and a PEG-lipid were separately dissolved in absolute ethanol to prepare respective solutions at concentrations of 20 mg/mL, 10 mg/mL, 20 mg/mL, and 25 mg/mL, respectively. The above four solutions were pipetted at a molar ratio of the amino lipid compound: DSPC:CHO-HP:PEG2000-DMG of 48:10:40.5:1.5, and mixed well to prepare an alcohol phase.
(2) Encapsulation: The water phase and the alcohol phase were injected into a microfluidic chip at a flow rate of water phase:alcohol phase=12 mL/min: 4 mL/min by using a microfluidic preparation instrument (MPE-L2), and encapsulation was carried out at a flow rate of water phase:alcohol phase=9 mL/min: 3 mL/min to obtain mRNA-encapsulating lipid nanoparticle (mRNA-LNP).
(3) Dialysis: The product of step (2) was loaded in a dialysis bag and placed in a Tris Buffer-8% sucrose solution for replacement to remove ingredients such as residual ethanol, unassembled lipids. Dialysis was conducted for 2 h with magnetic stirring at room temperature and under protection from light (dialysate was replaced every 1 hour).
(4) The product of step (3) was sterilized by passing through a 0.22 μm microporous membrane, and then packaged.
Lipid nanoparticle formulations encapsulating Flue mRNA were prepared, with a concentration of Flue mRNA of 0.2 μg/μL, a mass ratio of Flue mRNA to Lipid of 1:10, a particle size of 80-130 nm, and a encapsulation efficiency of 80% or higher.
• Animal preparation: Female BALB/c mice of 6-8 weeks old were selected and raised in an SPF grade breeding room. Animal testing was conducted in strict accordance with the guidelines of national health institutions and animal ethics requirements.
In vivo Delivery: prior to injection of the test LNP formulations, the LNP formulations were gently and repeatedly inverted to thoroughly mix the formulation samples. A corresponding amount of the formulation samples were aspirated with a 1 ml insulin syringe, and the LNP formulations were injected by tail vein injection (IV), with 3 mice in duplicate per formulation. Each mouse was injected with 75 μL of the luciferase mRNA (Flue mRNA)-encapsulating lipid nanoparticle formulation prepared in Experimental Example 1.
6 hours after injection of LNP formulations, mice were injected with 200 μL D-Luciferin luciferase developing substrate (Catalog No. 122799; Manufacturer: Perkin Elmer). After the substrate was injected, the mice were anesthetized by injection of 200 μl of 2.5% avertin, and the injection time of luciferase developing substrate was recorded.
The fluorescence expression intensity induced by the lipid nanoparticle encapsulating luciferase mRNA (Flue mRNA) with a representative amino lipid compound is shown in Table 4, with the amino lipid compound 118 as a control.
`CCCCCCCCOCC(=O)N(CCCCN(C)C)C(CCCCCCCCC(=O)OC(CCCCCC)CCCCCC)CCCCCCCCC(=O)OC(CCCCCC)CCCCCC` [compound 170]: the “Total flux (fluorescence expression intensity)” value amounted to 2.89E+07.

For `CCCCCCC(CCCCCC)OC(=O)CCCCCCCCC(CCCCCCCCC(=O)OC(CCCCCC)CCCCCC)N(CCCCN(C)C)C(=O)CCOCCCC` [compound 171], the “Total flux (fluorescence expression intensity)” value is reported as 1.15E+07.

In the case of `CCCCCCC(CCCCCC)OC(=O)CCCCCCCCC(CCCCCCCCC(=O)OC(CCCCCC)CCCCCC)N(CCCCN(C)C)C(=O)CCOCCCCC` [compound 172], the “Total flux (fluorescence expression intensity)” value amounted to 8.64E+07.

`CCCCCCOCCC(=O)N(CCCCN(C)C)C(CCCCCCCCC(=O)OC(CCCCCC)CCCCCC)CCCCCCCCC(=O)OC(CCCCCC)CCCCCC` [compound 173]: the “Total flux (fluorescence expression intensity)” value came to 2.07E+07.

Turning to `CCCCCCCOCCC(=O)N(CCCCN(C)C)C(CCCCCCCCC(=O)OC(CCCCCC)CCCCCC)CCCCCCCCC(=O)OC(CCCCCC)CCCCCC` [compound 174], the “Total flux (fluorescence expression intensity)” value turned out to be 9.59E+07.

As to `CCCCCCCCOCCC(=O)N(CCCCN(C)C)C(CCCCCCCCC(=O)OC(CCCCCC)CCCCCC)CCCCCCCCC(=O)OC(CCCCCC)CCCCCC` [compound 175], the “Total flux (fluorescence expression intensity)” value amounted to 5.15E+07.

Take `CCCCCCC(CCCCCC)OC(=O)CCCCCCCCC(CCCCCCCCC(=O)OC(CCCCCC)CCCCCC)N(CCCCN(C)C)C(=O)CCCOCCCCC` [compound 177]: the “Total flux (fluorescence expression intensity)” value is on record as 2.52E+07.

With `CCCCCCOCCCC(=O)N(CCCCN(C)C)C(CCCCCCCCC(=O)OC(CCCCCC)CCCCCC)CCCCCCCCC(=O)OC(CCCCCC)CCCCCC` [compound 178], the “Total flux (fluorescence expression intensity)” value is reported as 6.68E+07.

Staying with this experiment, now noted: Fluc mRNA-LNP, 75 μL tail vein IV, female BALB/c mice, IVIS 6 hours after injection, liver.
Take `CCCCCCCCOCC(=O)N(CCCCN(C)C)C(CCCCCCCCC(=O)OC(CCCCCC)CCCCCC)CCCCCCCCC(=O)OC(CCCCCC)CCCCCC` [compound 170]: the “Liver (fluorescence expression intensity)” value is 1.34E+07.

With `CCCCCCC(CCCCCC)OC(=O)CCCCCCCCC(CCCCCCCCC(=O)OC(CCCCCC)CCCCCC)N(CCCCN(C)C)C(=O)CCOCCCC` [compound 171], the “Liver (fluorescence expression intensity)” value was determined as 5.33E+06.

Regarding `CCCCCCC(CCCCCC)OC(=O)CCCCCCCCC(CCCCCCCCC(=O)OC(CCCCCC)CCCCCC)N(CCCCN(C)C)C(=O)CCOCCCCC` [compound 172], the “Liver (fluorescence expression intensity)” value is recorded as 3.10E+07.

Regarding `CCCCCCOCCC(=O)N(CCCCN(C)C)C(CCCCCCCCC(=O)OC(CCCCCC)CCCCCC)CCCCCCCCC(=O)OC(CCCCCC)CCCCCC` [compound 173], the “Liver (fluorescence expression intensity)” value is 9.15E+06.

As to `CCCCCCCOCCC(=O)N(CCCCN(C)C)C(CCCCCCCCC(=O)OC(CCCCCC)CCCCCC)CCCCCCCCC(=O)OC(CCCCCC)CCCCCC` [compound 174], the “Liver (fluorescence expression intensity)” value turned out to be 1.62E+07.

For the compound `CCCCCCCCOCCC(=O)N(CCCCN(C)C)C(CCCCCCCCC(=O)OC(CCCCCC)CCCCCC)CCCCCCCCC(=O)OC(CCCCCC)CCCCCC` [compound 175], the “Liver (fluorescence expression intensity)” value amounted to 1.57E+07.

In the case of `CCCCCCC(CCCCCC)OC(=O)CCCCCCCCC(CCCCCCCCC(=O)OC(CCCCCC)CCCCCC)N(CCCCN(C)C)C(=O)CCCOCCCCC` [compound 177], the “Liver (fluorescence expression intensity)” value is on record as 5.04E+06.

As to `CCCCCCOCCCC(=O)N(CCCCN(C)C)C(CCCCCCCCC(=O)OC(CCCCCC)CCCCCC)CCCCCCCCC(=O)OC(CCCCCC)CCCCCC` [compound 178], the “Liver (fluorescence expression intensity)” value is listed as 1.15E+07.

The same experiment, now with this note: Fluc mRNA-LNP, 75 μL tail vein IV, female BALB/c mice, IVIS 6 hours after injection, spleen.
For `CCCCCCCCOCC(=O)N(CCCCN(C)C)C(CCCCCCCCC(=O)OC(CCCCCC)CCCCCC)CCCCCCCCC(=O)OC(CCCCCC)CCCCCC` [compound 170], the “Spleen (fluorescence expression intensity)” value worked out at 1.07E+07.

`CCCCCCC(CCCCCC)OC(=O)CCCCCCCCC(CCCCCCCCC(=O)OC(CCCCCC)CCCCCC)N(CCCCN(C)C)C(=O)CCOCCCC` [compound 171]: the “Spleen (fluorescence expression intensity)” value worked out at 3.97E+06.

Take `CCCCCCC(CCCCCC)OC(=O)CCCCCCCCC(CCCCCCCCC(=O)OC(CCCCCC)CCCCCC)N(CCCCN(C)C)C(=O)CCOCCCCC` [compound 172]: the “Spleen (fluorescence expression intensity)” value stood at 9.69E+06.

`CCCCCCOCCC(=O)N(CCCCN(C)C)C(CCCCCCCCC(=O)OC(CCCCCC)CCCCCC)CCCCCCCCC(=O)OC(CCCCCC)CCCCCC` [compound 173]: the “Spleen (fluorescence expression intensity)” value came out at 8.03E+06.

Consider `CCCCCCCOCCC(=O)N(CCCCN(C)C)C(CCCCCCCCC(=O)OC(CCCCCC)CCCCCC)CCCCCCCCC(=O)OC(CCCCCC)CCCCCC` [compound 174], for which the “Spleen (fluorescence expression intensity)” value was 7.28E+06.

For `CCCCCCCCOCCC(=O)N(CCCCN(C)C)C(CCCCCCCCC(=O)OC(CCCCCC)CCCCCC)CCCCCCCCC(=O)OC(CCCCCC)CCCCCC` [compound 175], the “Spleen (fluorescence expression intensity)” value was determined as 1.21E+07.

With `CCCCCCC(CCCCCC)OC(=O)CCCCCCCCC(CCCCCCCCC(=O)OC(CCCCCC)CCCCCC)N(CCCCN(C)C)C(=O)CCCOCCCCC` [compound 177], the “Spleen (fluorescence expression intensity)” value came to 3.23E+06.

Take `CCCCCCOCCCC(=O)N(CCCCN(C)C)C(CCCCCCCCC(=O)OC(CCCCCC)CCCCCC)CCCCCCCCC(=O)OC(CCCCCC)CCCCCC` [compound 178]: the “Spleen (fluorescence expression intensity)” value was 3.95E+06.

The same experiment, now with this note: Fluc mRNA-LNP, tail vein IV, BALB/c mice, 6 hours.
Take `CCCCCCCCOCC(=O)N(CCCCN(C)C)C(CCCCCCCCC(=O)OC(CCCCCC)CCCCCC)CCCCCCCCC(=O)OC(CCCCCC)CCCCCC` [compound 170]: the “(Spleen/Total Flux) * 100%” value stood at 37.02%.

As for `CCCCCCC(CCCCCC)OC(=O)CCCCCCCCC(CCCCCCCCC(=O)OC(CCCCCC)CCCCCC)N(CCCCN(C)C)C(=O)CCOCCCC` [compound 171], the “(Spleen/Total Flux) * 100%” value is listed as 34.52%.

For `CCCCCCC(CCCCCC)OC(=O)CCCCCCCCC(CCCCCCCCC(=O)OC(CCCCCC)CCCCCC)N(CCCCN(C)C)C(=O)CCOCCCCC` [compound 172], the “(Spleen/Total Flux) * 100%” value is on record as 11.22%.

Consider `CCCCCCOCCC(=O)N(CCCCN(C)C)C(CCCCCCCCC(=O)OC(CCCCCC)CCCCCC)CCCCCCCCC(=O)OC(CCCCCC)CCCCCC` [compound 173], for which the “(Spleen/Total Flux) * 100%” value amounted to 38.79%.

For the compound `CCCCCCCOCCC(=O)N(CCCCN(C)C)C(CCCCCCCCC(=O)OC(CCCCCC)CCCCCC)CCCCCCCCC(=O)OC(CCCCCC)CCCCCC` [compound 174], the “(Spleen/Total Flux) * 100%” value was determined as 7.59%.

As to `CCCCCCCCOCCC(=O)N(CCCCN(C)C)C(CCCCCCCCC(=O)OC(CCCCCC)CCCCCC)CCCCCCCCC(=O)OC(CCCCCC)CCCCCC` [compound 175], the “(Spleen/Total Flux) * 100%” value is 23.50%.

Take `CCCCCCC(CCCCCC)OC(=O)CCCCCCCCC(CCCCCCCCC(=O)OC(CCCCCC)CCCCCC)N(CCCCN(C)C)C(=O)CCCOCCCCC` [compound 177]: the “(Spleen/Total Flux) * 100%” value turned out to be 12.82%.

As for `CCCCCCOCCCC(=O)N(CCCCN(C)C)C(CCCCCCCCC(=O)OC(CCCCCC)CCCCCC)CCCCCCCCC(=O)OC(CCCCCC)CCCCCC` [compound 178], the “(Spleen/Total Flux) * 100%” value stood at 5.91%.

The experiment is the same for the next values; noted with them: Fluc mRNA-LNP, tail vein IV, BALB/c mice, 6 hours; relative to Compound 118.
With `CCCCCCCCOCC(=O)N(CCCCN(C)C)C(CCCCCCCCC(=O)OC(CCCCCC)CCCCCC)CCCCCCCCC(=O)OC(CCCCCC)CCCCCC` [compound 170], the “Multiple of spleen delivery/total delivery (Spleen/Total Flux) to Compound 118” value (“Multiple … (Spleen/Total Flux) to Compound 118” for short) was determined as 32.48.

On to `CCCCCCC(CCCCCC)OC(=O)CCCCCCCCC(CCCCCCCCC(=O)OC(CCCCCC)CCCCCC)N(CCCCN(C)C)C(=O)CCOCCCC` [compound 171], for which the “Multiple … (Spleen/Total Flux) to Compound 118” value came to 30.28.

Consider `CCCCCCC(CCCCCC)OC(=O)CCCCCCCCC(CCCCCCCCC(=O)OC(CCCCCC)CCCCCC)N(CCCCN(C)C)C(=O)CCOCCCCC` [compound 172], for which the “Multiple … (Spleen/Total Flux) to Compound 118” value came out at 9.84.

On to `CCCCCCOCCC(=O)N(CCCCN(C)C)C(CCCCCCCCC(=O)OC(CCCCCC)CCCCCC)CCCCCCCCC(=O)OC(CCCCCC)CCCCCC` [compound 173], for which the “Multiple … (Spleen/Total Flux) to Compound 118” value came out at 34.03.

Turning to `CCCCCCCOCCC(=O)N(CCCCN(C)C)C(CCCCCCCCC(=O)OC(CCCCCC)CCCCCC)CCCCCCCCC(=O)OC(CCCCCC)CCCCCC` [compound 174], the “Multiple … (Spleen/Total Flux) to Compound 118” value was 6.66.

Regarding `CCCCCCCCOCCC(=O)N(CCCCN(C)C)C(CCCCCCCCC(=O)OC(CCCCCC)CCCCCC)CCCCCCCCC(=O)OC(CCCCCC)CCCCCC` [compound 175], the “Multiple … (Spleen/Total Flux) to Compound 118” value came out at 20.61.

Turning to `CCCCCCC(CCCCCC)OC(=O)CCCCCCCCC(CCCCCCCCC(=O)OC(CCCCCC)CCCCCC)N(CCCCN(C)C)C(=O)CCCOCCCCC` [compound 177], the “Multiple … (Spleen/Total Flux) to Compound 118” value is reported as 11.24.

Regarding `CCCCCCOCCCC(=O)N(CCCCN(C)C)C(CCCCCCCCC(=O)OC(CCCCCC)CCCCCC)CCCCCCCCC(=O)OC(CCCCCC)CCCCCC` [compound 178], the “Multiple … (Spleen/Total Flux) to Compound 118” value is on record as 5.19.

(Values after patent publication US20260015315A1, “AMINO LIPID COMPOUND, PREPARATION METHOD THEREFOR, COMPOSITION THEREOF AND APPLICATION THEREOF” (SHENZHEN SHENXIN BIOTECHNOLOGY CO., LTD., priority 2022, published 2026).)
